Results reported in patent publication US20240335404A1, “SUBSTITUTED ESTERS CONTAINING POLYOLS AND SACCHARIDES FOR TREATING HEPATOTOXICITY AND FATTY LIVER DISEASES” (SINEW PHARMA INC., priority 2015, published 2024).

Test system: fatty liver
Test: High fat diet-induced fatty liver in B6 mice
Type: in vivo
Details: HFD mice; for GSH / Gpx / Grd / SOD: liver; for ALT / AST / TC in liver / TG in liver: administration period of 4 weeks; for liver TC / liver TG: 4 or 8 weeks; for ALT and AST values: compounds administered separately; for liver tissue sections, H&E: treated for 4 weeks, FIG. 5
Description: More than four mice were used in each group of the pre-test, while more than twelve mice were used in each group of the confirmatory test. […] The animal test was carried out according to the guideline for animal experiment of National Health Research Institutes. […] The weight of mice was recorded once a week. The tested animals were grouped randomly into Blank, High Fat Diet control (HFD), Positive Control (PS), and Test group. The animals of Blank were fed with normal feed. The animals of HFD were fed with high fat feed. […] The animals of Test group were fed with high fat feed, and additionally fed with test compounds by a tube. The animals of Blank were fed casually with normal feed for 12 weeks, while the animals of HFD, PS, and Test group were fed casually with high fat feed for 12 weeks. After 8 weeks of feeding, the animals of Blank and HFD were fed with deionized water by a tube once a day; the animals of PS were fed with silymarin by a tube once a day; and the animals of Test Group were fed with test compounds by a tube once a day for a duration of 4 or 8 weeks. Before testing and in the eighth, twelfth, and sixteenth week after testing, blood was collected from the cheek or the heart. At the end of testing, all mice were weighted and then sacrificed, and blood was collected from the cheek or the heart simultaneously. The blood specimens of mice rested at room temperature for one hour to clot, and then the serum was separated by centrifugation in a refrigeration centrifuge at 15,700×g at 4° C. for 5 minutes. Afterwards, biochemical indices of liver function, including aspartate transaminase (AST), alanine aminotransferase (ALT), triglyceride (TG), total cholesterol (TCHO/TC), low-density lipoprotein cholesterol (LDL-C), and high-density lipoprotein cholesterol (HDL-C), were detected by the automatic blood biochemistry analyzer. In addition, abdominal fat and liver specimens were taken from the abdomens of sacrificed mice and weighted to compare the weight of fat and liver and obtain the ratio of liver weight to body weight. […] The cut sections proceeded with H&E staining for histopathological observation. Moreover, the rest of the liver was frozen for preservation and detection of the contents of triglyceride and total cholesterol in the liver. Furthermore, the liver function of animals of each group were analyzed by Galactose Single Point Method, which was recognized and recommended for quantification of remaining liver function in clinical use by U.S. FDA and Ministry of Health and Welfare, Taiwan. […] One hour after the administration, about 0.5 ml of whole blood was taken by using a filter paper to evaluate liver function of mice. The higher the value of GSP was, the worse the remaining liver function would be. (FDA: “Guidance for Industry: Pharmacokinetics in Patients with Impaired. Hepatic Function-Study Design, Data Analysis and Impact on Dosing and. Labeling. 2003. At the end of the test, all mice were sacrificed. […] Afterwards, xylene was replaced with hot paraffin solution. At last, the tissue was embedded with paraffin solution. The finished paraffin specimen was cut into […] paraffin sections by the microtome. The sections were pasted on clean slides, dried at 37° C., and then stained by H&E staining. In order to observe the changes of lesion, fat accumulation, necrosis, or fibrosis in liver cells when there was an ongoing liver damage, liver tissues were H&E stained to evaluate the degree of liver fat accumulation. All the histopathological sections were cut from the same position on the largest right lobe of liver for eliminating bias in subjective observation, and then subject to pathological staining. As for the assessment of semi-quantitative analysis in pathology, it had to be confirmed by a physician or a veterinary pathologist who conducted a double-blind analysis to score (NAS score) and compare all the sections without knowing the test design. […]

[1] = 2.5 mg/kg, test period of 4 weeks
[2] = 1.5 mg/kg, test period of 4 weeks

With `O=C1C[C@@H](c2ccc(O)c(O)c2)Oc2cc(O)cc(O)c21` [Eriodictyol] the GSH [1] was 1302.0 ± 241.1 U/L, the Gpx [1] was 3083.3 ± 378.9 U/L and the Grd [1] was 86.9 ± 15.7 U/L. The SOD [1] was 385.9 ± 34.0 U/L, the Abdominal fat weight (2.5 mg/kg) was 2.7 ± 0.6 g and the “Increase of body weight” value (2.5 mg/kg) was 8.3 ± 6.7 g. It also gave a Liver weight (2.5 mg/kg) of 1.3 ± 0.1 g, an ALT (2.5 mg/kg) of 33.7 ± 18.5 U/L and an AST (2.5 mg/kg) of 100.9 ± 42.0 U/L. The TC in liver (2.5 mg/kg) was 3.8 ± 1.1 mg/g liver, the TG in liver (2.5 mg/kg) was 43.1 ± 13.1 mg/g liver and the NAS [1] was 1.5 ± 0.8 mg/g liver. The ALT (5.0 mg/kg) was 41.4 ± 6.3 U/L, the AST (5.0 mg/kg) was 161.4 ± 42.3 U/L and the TC in liver (5.0 mg/kg) was 3.0 ± 0.9 mg/g liver. For the same compound, the TG in liver (5.0 mg/kg) was 54.2 ± 15.0 mg/g liver, the “reduction in liver TG content” value (4-week treatment, p<0.005) was “about 67%” and the “liver TC” value was “reduce TC in liver significantly”. For the same compound, the “liver TG” value was “reduce TG in liver significantly”, the “liver antioxidant activity” value (4 weeks) was “improve antioxidant activity significantly” and the “liver damage, NAS” value (4 weeks) was “reduce liver damage significantly”. The “ALT and AST values” was “reduce ALT and AST values significantly” and the “liver tissue sections, H&E” value was “large vesicular fat droplets within liver cells in liver tissue section were significantly reduced”.
For `COc1ccc([C@@H]2CC(=O)c3c(O)cc(O)cc3O2)cc1O` [Hesperitin], the GSH [1] was 1742.6 ± 241.5 U/L, the Gpx [1] was 3133.3 ± 376.9 U/L and the Grd [1] was 102.5 ± 28.3 U/L. For the same compound, the SOD [1] was 408.3 ± 66.7 U/L, the Abdominal fat weight (2.5 mg/kg) was 3.0 ± 0.5 g and the “Increase of body weight” value (2.5 mg/kg) was 14.5 ± 8.3 g. The Liver weight (2.5 mg/kg) was 1.5 ± 0.1 g, the ALT (2.5 mg/kg) was 36.8 ± 22.1 U/L and the AST (2.5 mg/kg) was 72.4 ± 11.2 U/L. The TC in liver (2.5 mg/kg) was 3.7 ± 0.7 mg/g liver, the TG in liver (2.5 mg/kg) was 67.8 ± 16.6 mg/g liver and the “liver TC” value was “reduce TC in liver significantly”. For the same compound, the “liver TG” value was “reduce TG in liver significantly”, the “liver antioxidant activity” value (4 weeks) was “improve antioxidant activity significantly” and the “ALT and AST values” was “reduce ALT and AST values significantly”.
In the case of `CC1CCC(C(C)C)C(O)C1` (centres unmarked) [Menthol], the “weight of abdominal fat” value is reported as “reduce the weight of abdominal fat in animals significantly”, the GSH [2] is reported as 1432.7 ± 104.0 U/L and the Gpx [2] is reported as 2921.7 ± 640.2 U/L. The Grd [2] was 95.2 ± 16.2 U/L, the SOD [2] was 427.9 ± 41.9 U/L and the Abdominal fat weight (1.5 mg/kg) was 2.3 ± 0.6 g. For the same compound, the “Increase of body weight” value (1.5 mg/kg) was 19.6 ± 5.0 g, the Liver weight (1.5 mg/kg) was 1.6 ± 0.2 g and the ALT (1.5 mg/kg) was 41.5 ± 13.7 U/L. The AST (1.5 mg/kg) was 129.9 ± 37.1 U/L, the TC in liver (1.5 mg/kg) was 4.4 ± 3.5 mg/g liver and the TG in liver (1.5 mg/kg) was 87.3 ± 72.3 mg/g liver. For the same compound, the “liver TC” value was “reduce TC in liver significantly”, the “liver TG” value was “reduce TG in liver significantly” and the “ALT and AST values” was “reduce ALT and AST values significantly”. For the same compound, the “liver tissue sections, H&E” value was “large vesicular fat droplets within liver cells in liver tissue section were significantly reduced”.
`O=C(CCc1ccc(O)cc1)c1c(O)cc(O)cc1O[C@@H]1O[C@H](CO)[C@@H](O)[C@H](O)[C@H]1O` [Phloridzin] showed a GSH [1] of 1387.7 ± 168.2 U/L, a Gpx [1] of 3234.0 ± 505.1 U/L and a Grd [1] of 82.2 ± 33.6 U/L. The SOD [1] was 411.5 ± 87.5 U/L, the Abdominal fat weight (2.5 mg/kg) was 2.3 ± 0.6 g and the “Increase of body weight” value (2.5 mg/kg) was 13.7 ± 10.7 g. The Liver weight (2.5 mg/kg) was 1.3 ± 0.1 g, the ALT (2.5 mg/kg) was 35.7 ± 9.1 U/L and the AST (2.5 mg/kg) was 161.9 ± 96.2 U/L. For the same compound, the TC in liver (2.5 mg/kg) was 2.9 ± 0.5 mg/g liver and the TG in liver (2.5 mg/kg) was 48.9 ± 14.1 mg/g liver.
`O=c1c(-c2ccc(O)cc2)coc2c([C@@H]3O[C@H](CO)[C@@H](O)[C@H](O)[C@H]3O)c(O)ccc12` [Puerarin] was tested, and the GSH [1] was 1498.1 ± 150.0 U/L, the Gpx [1] was 3581.7 ± 1056.7 U/L and the Grd [1] was 99.0 ± 17.2 U/L. The SOD [1] was 434.5 ± 59.8 U/L, the Abdominal fat weight (2.5 mg/kg) was 2.8 ± 0.3 g and the “Increase of body weight” value (2.5 mg/kg) was 21.7 ± 3.1 g. It also gave a Liver weight (2.5 mg/kg) of 1.4 ± 0.2 g, an ALT (2.5 mg/kg) of 34.4 ± 14.7 U/L and an AST (2.5 mg/kg) of 66.9 ± 8.5 U/L. The TC in liver (2.5 mg/kg) was 6.7 ± 2.7 mg/g liver, the TG in liver (2.5 mg/kg) was 89.4 ± 49.1 mg/g liver and the “liver TG” value was “reduce TG in liver significantly”. The “liver antioxidant activity” value (4 weeks) was “improve antioxidant activity significantly” and the “ALT and AST values” was “reduce ALT and AST values significantly”.
With `O=C1NS(=O)(=O)c2ccccc21` [Saccharin] the Abdominal fat weight (1.5 mg/kg) was 2.3 ± 0.5 g, the “Increase of body weight” value (1.5 mg/kg) was 27.7 ± 12.7 g and the Liver weight (1.5 mg/kg) was 1.5 ± 0.1 g. For the same compound, the ALT (1.5 mg/kg) was 50.7 ± 29.7 U/L, the AST (1.5 mg/kg) was 170.4 ± 28.6 U/L and the TC in liver (1.5 mg/kg) was 2.8 ± 1.5 mg/g liver. The TG in liver (1.5 mg/kg) was 84.0 ± 41.4 mg/g liver, the “reduction in liver TC content” value (4-week treatment, p<0.005) was “about 56%” and the “liver TC” value was “reduce TC in liver significantly”. The “ALT and AST values” was “reduce ALT and AST values significantly”.
